{"source": "patent US12071434B2", "about": "“Heterocyclic compound” (Takeda Pharmaceutical Company Limited, priority 2018, dated 2024)"}
{"target": "T1, human orexin type 2 receptor (Homo sapiens, UniProt O43614)", "T1 construct": "expressed in transfected cells", "T1 sequence (O43614 1-444)": "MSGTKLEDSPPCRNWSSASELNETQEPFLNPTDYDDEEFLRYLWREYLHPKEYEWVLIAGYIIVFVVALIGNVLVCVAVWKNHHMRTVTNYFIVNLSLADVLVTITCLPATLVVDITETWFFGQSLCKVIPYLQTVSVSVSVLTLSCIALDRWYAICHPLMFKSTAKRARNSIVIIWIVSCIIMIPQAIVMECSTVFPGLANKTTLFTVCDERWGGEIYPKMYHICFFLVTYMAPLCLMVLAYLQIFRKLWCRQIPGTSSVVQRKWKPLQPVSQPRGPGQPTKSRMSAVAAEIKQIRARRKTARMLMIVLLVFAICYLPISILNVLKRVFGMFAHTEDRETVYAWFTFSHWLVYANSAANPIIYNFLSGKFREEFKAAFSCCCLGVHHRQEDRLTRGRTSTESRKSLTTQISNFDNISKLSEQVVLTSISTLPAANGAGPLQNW", "test": "Measurement of orexin type 2 receptor agonist activity (calcium fluorescence, Fluo-4 AM, FDSS) in CHO cells forcibly expressing human OX2 receptor", "type": "cell-based", "details": "test compound 3 μM, DMSO = 0%, orexin A (human) 10 nM = 100%", "procedure,_shortened": "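CHO-dhfr cells stably expressing human OX2 receptor, loaded with Fluo-4 AM plus probenecid for 30 min at 37 °C, then 30 min at room temperature. Calcium fluorescence read for about 2 min 40 s after compound addition. Activity (%) scaled between DMSO (0%) and 10 nM human orexin A (100%).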", "units": {"0X2R agonist activity (3 μM, %)": "%"}}
{"compound": "CC(C)(O)c1ccc2n(c1=O)[C@@H](Cc1cccc(-c3ccccc3)c1)[C@@H](NS(C)(=O)=O)CC2", "note": "(racemic) [Example 33, rac-N-[(3S,4S)-4-[([1,1′-biphenyl]-3-yl)methyl]-7-(2-hydroxypropan-2-yl)-6-oxo-1,3,4,6-tetrahydro-2H-quinolizin-3-yl]methanesulfonamide]", "0X2R agonist activity (3 μM, %)": 87}
{"compound": "CC(C)c1ccc2n(c1=O)[C@@H](Cc1cccc(-c3cccc(F)c3)c1F)[C@@H](NC(=O)C(=O)N(C)C)CC2", "note": "(racemic) [Example 40, rac-N~2~-[(3S,4S)-4-[(2,3′-difluoro[1,1′-biphenyl]-3-yl)methyl]-6-oxo-7-(propan-2-yl)-1,3,4,6-tetrahydro-2H-quinolizin-3-yl]-N~1~,N~1~-dimethylethanediamide]", "0X2R agonist activity (3 μM, %)": 93}
{"compound": "CS(=O)(=O)N[C@H]1CCc2ccc(F)c(=O)n2[C@H]1Cc1cccc(-c2ccccc2)c1", "note": "(racemic) [Example 16, rac-N-{(3S,4S)-4-[([1,1′-biphenyl]-3-yl)methyl]-7-fluoro-6-oxo-1,3,4,6-tetrahydro-2H-quinolizin-3-yl}methanesulfonamide]", "0X2R agonist activity (3 μM, %)": 95}
{"compound": "CC(C)n1cnc2c(c1=O)[C@@H](Cc1cccc(-c3ccccc3F)c1)[C@@H](NS(=O)(=O)C1CC1)CC2", "note": "[Example 192, N-[(5R,6S)-5-[(2′-fluoro[1,1′-biphenyl]-3-yl)methyl]-4-oxo-3-(propan-2-yl)-3,4,5,6,7,8-hexahydroquinazolin-6-yl]cyclopropanesulfonamide]", "0X2R agonist activity (3 μM, %)": 101}
{"compound": "CCn1c(C)nc2c(c1=O)C(Cc1cccc(-c3ccccc3)c1)C(NS(C)(=O)=O)CC2", "note": "(racemic) [Example 71, rac-N-{(5R,6S)-5-[([1,1′-biphenyl]-3-methyl]-3-ethyl-2-methyl-4-oxo-3,4,5,6,7,8-hexahydroquinazolin-6-yl}methanesulfonamide]", "0X2R agonist activity (3 μM, %)": 90}
{"compound": "CCn1ccc2c(c1=O)[C@@H](Cc1cccc(-c3cccc4c3OCC4)c1)[C@@H](NS(C)(=O)=O)CC2", "note": "(racemic) [Example 126, rac-N-[(7S,8R)-8-{[3-(2,3-dihydro-1-benzofuran-7-yl)phenyl]methyl}-2-ethyl-1-oxo-1,2,5,6,7,8-hexahydroisoquinolin-7-yl]methanesulfonamide]", "0X2R agonist activity (3 μM, %)": 103}
{"compound": "CCn1ccc2c(c1=O)[C@@H](Cc1cccc(-c3ccccc3)c1F)[C@@H](NS(C)(=O)=O)CC2=O", "note": "(racemic) [Example 163, rac-N-{(7S,8R)-2-ethyl-8-[(2-fluoro[1,1′-biphenyl]-3-yl)methyl]-1,5-dioxo-1,2,5,6,7,8-hexahydroisoquinolin-7-yl}methanesulfonamide]", "0X2R agonist activity (3 μM, %)": 94}
{"compound": "CC(C)n1cnc2c(c1=O)[C@@H](Cc1cccc(-c3ccccc3)c1F)[C@@H](NS(C)(=O)=O)[C@H](F)[C@H]2F", "note": "(racemic) [Example 198, rac-N-[(5R,6R,7S,8S)-7,8-difluoro-5-[(2-fluoro[1,1′-biphenyl]-3-yl)methyl]-4-oxo-3-(propan-2-yl)-3,4,5,6,7,8-hexahydroquinazolin-6-yl]methanesulfonamide]", "0X2R agonist activity (3 μM, %)": 85}
{"compound": "CC(C)n1cnc2c(c1=O)C(Cc1cccc(-c3cccc(F)c3F)c1)C(NS(=O)(=O)C1(F)CC1)CC2", "note": "(stereo not drawn) [Example 191, rel-N-{5-[(2′,3′-difluoro[1,1′-biphenyl]-3-yl)methyl]-4-oxo-3-(propan-2-yl)-3,4,5,6,7,8-hexahydroquinazolin-6-yl}-1-fluorocyclopropane-1-sulfonamide]", "0X2R agonist activity (3 μM, %)": 90}
{"compound": "COC1(C(=O)N[C@H]2CCc3ncn(C(C)C)c(=O)c3[C@H]2Cc2cccc(-c3ccccc3)c2)CC1", "note": "(racemic) [Example 63, rac-N-[(5R,6S)-5-[([1,1′-biphenyl]-3-yl)methyl]-4-oxo-3-(propan-2-yl)-3,4,5,6,7,8-hexahydroquinazolin-6-yl]-1-methoxycyclopropane-1-carboxamide]", "0X2R agonist activity (3 μM, %)": 92}
{"compound": "CC(C)n1cnc2c(c1=O)[C@@H](Cc1cccc(-c3ccccc3)c1F)[C@@H](NS(=O)(=O)C1CC1)[C@H](F)C2", "note": "(relative stereo) [Example 206, rel-N-[(5R,6R,7R)-7-fluoro-5-[(2-fluoro[1,1′-biphenyl]-3-yl)methyl]-4-oxo-3-(propan-2-yl)-3,4,5,6,7,8-hexahydroquinazolin-6-yl]cyclopropanesulfonamide]", "0X2R agonist activity (3 μM, %)": 96}
{"compound": "CC(C)n1cnc2c(c1=O)[C@@H](Cc1cccc(-c3ccccc3F)c1F)[C@@H](NS(C)(=O)=O)CC2", "note": "(relative stereo) [Example 149, rel-N-[(5R,6S)-5-[(2,2′-difluoro[1,1′-biphenyl]-3-yl)methyl]-4-oxo-3-(propan-2-yl)-3,4,5,6,7,8-hexahydroquinazolin-6-yl]methanesulfonamide]", "0X2R agonist activity (3 μM, %)": 105}
{"compound": "CCS(=O)(=O)N[C@H]1CCc2ncn(C(C)C)c(=O)c2[C@H]1Cc1cccc(-c2cc(F)cc(F)c2)c1", "note": "[Example 177, N-[(5R,6S)-5-[(3′,5′-difluoro[1,1′-biphenyl]-3-yl)methyl]-4-oxo-3-(propan-2-yl)-3,4,5,6,7,8-hexahydroquinazolin-6-yl]ethanesulfonamide]", "0X2R agonist activity (3 μM, %)": 95}
{"compound": "CS(=O)(=O)N[C@H]1CCc2cccc(=O)n2[C@H]1Cc1cccc(-c2ccccc2)c1", "note": "(racemic) [Example 1, rac-N-{(3S,4S)-4-[([1,1′-biphenyl]-3-yl)methyl]-6-oxo-1,3,4,6-tetrahydro-2H-quinolizin-3-yl}methanesulfonamide]", "0X2R agonist activity (3 μM, %)": 79}
{"compound": "CC(C)n1cnc2c(c1=O)[C@@H](Cc1csc(-c3cccc(F)c3F)n1)[C@@H](NS(C)(=O)=O)CC2", "note": "(relative stereo) [Example 154, rel-N-[(5R,6S)-5-{[2-(2,3-difluorophenyl)-1,3-thiazol-4-yl]methyl}-4-oxo-3-(propan-2-yl)-3,4,5,6,7,8-hexahydroquinazolin-6-yl]methanesulfonamide]", "0X2R agonist activity (3 μM, %)": 100}
{"compound": "[2H]C([2H])([2H])C([2H])([2H])n1ccc2c(c1=O)C(Cc1cccc(-c3cccc(F)c3F)c1)C(NS(C)(=O)=O)CC2", "note": "(racemic) [Example 147, rac-N-{(7S,8R)-8-[(2′,3′-difluoro[1,1′-biphenyl]-3-yl)methyl]-2-(~2~H_5_)ethyl-1-oxo-1,2,5,6,7,8-hexahydroisoquinolin-7-yl}methanesulfonamide]", "0X2R agonist activity (3 μM, %)": 100}
{"compound": "CC(C)n1cnc2c(c1=O)[C@@H](Cc1cc(F)cc(-c3ccccc3)c1)[C@@H](NS(C)(=O)=O)CC2", "note": "(relative stereo) [Example 141, rel-N-[(5R,6S)-5-[(5-fluoro[1,1′-biphenyl]-3-yl)methyl]-4-oxo-3-(propan-2-yl)-3,4,5,6,7,8-hexahydroquinazolin-6-yl]methanesulfonamide]", "0X2R agonist activity (3 μM, %)": 103}
{"compound": "CCc1ccc2n(c1=O)C(Cc1cccc(-c3ccccc3)c1)C(NS(C)(=O)=O)CC2", "note": "(racemic) [Example 27, rac-N-{(3S,4S)-4-[([1,1′-biphenyl]-3-yl)methyl]-7-ethyl-6-oxo-1,3,4,6-tetrahydro-2H-quinozilin-3-yl}methanesulfonamide]", "0X2R agonist activity (3 μM, %)": 99}
